Assays:
[1] = tested on: bile duct cancer; experiment: Administration of Compound A via intravenous injection to bile duct cancer patients; therapeutic effects judged by MRI image diagnosis; type: in vivo, human; set-up: key to Therapeutic effects of the present invention: CR (Complete Response): A state in which the tumor completely disappeared.; PR (Partial Response): A state in which a sum of the sizes of the tumors was reduced by 30% or more.; SD (Stable Disease): A state in which the size of the tumor did not change.; PD (Progressive Disease): A state in which a sum of the sizes of the tumors was increased by 20% or more and also, the size was increased by 5 mm or more even at an absolute value, or a new lesion appeared
Description: This liquid pharmaceutical preparation was used in the subsequent therapy. Besides, the therapy was carried out at the University of Texas MD Anderson Cancer Center (hereinafter referred to as MDACC), and at Sarah Cannon Research Institute (hereinafter referred to as SCRI) in Denver, State of Colorado, U.S.A.
(§1) A medication cycle consisting of administration of Compound A via intravenous injection once a week from the 1st week to the 3rd week and cessation of medication in the 4th week was repeated to bile duct cancer patients Specifically, 28 days was set at one cycle, and on the 1st day, 8th day and 15th day, Compound A was administered to the patients. This cycle consisting of 28 days was repeated. A single dose of compound A was set from 40 mg/m^2 to 135 mg/m^2.
The therapeutic effects were judged according to the following criteria.
Evaluation targets were confirmed by performing image diagnosis using MRI (magnetic resonance imaging), and were then judged according to the following criteria:
CR (Complete Response): A state in which the tumor completely disappeared.
PR (Partial Response): A state in which a sum of the sizes of the tumors was reduced by 30% or more.
PD (Progressive Disease): A state in which a sum of the sizes of the tumors was increased by 20% or more and also, the size was increased by 5 mm or more even at an absolute value, or a new lesion appeared.

[2] = Side effects / drug associated AE in the clinical trial of Compound A; type: in vivo, human
Description: as §1
Bile duct cancer patient 6 is intrahepatic cholangiocarcinoma. […] Further, due to neutropenia, the dose was changed to 67.5 mg/m^2. Thereafter, SD could be maintained for 34 weeks or more.

[3] = tested on: tumor; details: orally administered to mice; cited from earlier work

In the case of `Nc1ccn([C@@H]2S[C@H](CO)[C@@H](O)[C@@H]2F)c(=O)n1` [Compound A, 1-(2-deoxy-2-fluoro-4-thio-β-D-arabinofuranosyl)cytosine], the “Therapeutic effects of the present invention” value (“Therapeutic effects” below) ([1]; bile duct cancer patient 1 (intrahepatic bile duct cancer), single dose 40 mg/m^2 iv, days 1, 8, 15 of 28-day cycle) was “PR (PR (Partial Response): A state in which a sum of the sizes of the tumors was reduced by 30% or more.)”, the “Therapeutic effect after dose increase” value ([1]; bile duct cancer patient 1, single dose increased to 60 mg/m^2 or 90 mg/m^2) was “PR (PR (Partial Response): A state in which a sum of the sizes of the tumors was reduced by 30% or more.)” and the “Therapeutic effects” value ([1]; bile duct cancer patient 2 (intrahepatic bile duct cancer), single dose 60 mg/m^2 iv) was “PR (PR (Partial Response): A state in which a sum of the sizes of the tumors was reduced by 30% or more.)”. For the same compound, the “Therapeutic effects” value ([1]; bile duct cancer patient 3 (bile duct cholangiocarcinoma), initial dose 60 mg/m^2, changed to 90 mg/m^2) was “SD”, the “time for which SD could be maintained” value ([1]; bile duct cancer patient 3, initial dose 60 mg/m^2, changed to 90 mg/m^2) was ≥ 32 weeks and the “Therapeutic effects” value ([1]; bile duct cancer patient 4, single dose 90 mg/m^2 iv) was “PD (PD (Progressive Disease): A state in which a sum of the sizes of the tumors was increased by 20% or more and also, the size was increased by 5 mm or more even at an absolute value, or a new lesion appeared.)”. For the same compound, the “Therapeutic effects” value ([1]; bile duct cancer patient 5, single dose 90 mg/m^2 iv) was “SD”, the “Therapeutic effects” value ([1]; bile duct cancer patient 6 (intrahepatic cholangiocarcinoma), single dose 90 mg/m^2 in Table 1 (text: 135, then 90, then 67.5 mg/m^2)) was “SD” and the “time for which SD could be maintained” value ([1]; bile duct cancer patient 6, after dose changes 135 to 90 to 67.5 mg/m^2) was ≥ 34 weeks. The “side effect leading to further dose change” value ([2]; bile duct cancer patient 6, dose 90 mg/m^2 (then changed to 67.5 mg/m^2)) was “neutropenia”, the side effects observed ([2]; bile duct cancer patient 6, initial dose 135 mg/m^2) was “hypotension and suspected bacteremia” and the “most common drug associated AE among two or more patients” value ([2]; clinical trial, patients including bile duct cancer patients, 40 to 135 mg/m^2 iv) was “fever, nausea, chills, itch, irritating, dry skin, skin separation, and fatigue”. The antitumor activity [3] was “strong antitumor activity”.
